US8993282B2, “Carotenoid fermentation method” (JX Nippon Oil & Energy Corporation, priority 2008, dated 2015)

Key:
[1] = tested on: Paracoccus sp. strain K-185; assay: Glutamate supplementation, test tube culture (soybean meal medium), carotenoid by HPLC; format: cell-based
Method: (§1) In the examples, carotenoids were quantified by high performance liquid chromatography (HPLC) as follows.
(§2) Two columns of Wakosil-II 5 SIL-100 (φ4.6×250 mm) (Wako Pure Chemical Industries, Ltd., Japan) were connected to each other for use as a column. Elution was performed by flowing an n-hexane-tetrahydrofuran-methanol mixed solution (40:20:1), which was a mobile phase, at a flow rate of 1.0 mL/minute at a constant temperature around room temperature. The measurement was performed as follows. Samples were each dissolved in tetrahydrofuran and then diluted 100-fold with the mobile phase. Each dilution was injected in a volume of 20 μL. The column eluate was detected at a wavelength of 470 nm. As a reference for quantification, astaxanthin (SIGMA, Cat. No. A9335) was used. The astaxanthin concentration of the reference solution was determined using the following equation after measuring the absorbance (A) of the reference solution at 477 nm and the area percentage % (B) of the astaxanthin peak at the time of HPLC analysis under the above conditions.
(§3) Next, a medium of the following composition (glucose 30 g/L, soybean meal 20 g/L, ammonium sulfate 1.5 g/L, potassium dihydrogenphosphate 1.5 g/L, disodium hydrogenphosphate 12-hydrate 3.8 g/L, calcium chloride dihydrate 5.0 g/L, magnesium sulfate 7-hydrate 0.7 g/L, iron sulfate 7-hydrate 0.6 g/L, ester-based defoaming agent 0.2 g/L) was dispensed in 8 ml volumes into cotton-plugged test tubes having an inner diameter of 18 mm (2 tubes in total). One of the test tubes was supplemented with monosodium L-glutamate monohydrate to 30 mmol/L, while the other was supplemented with nothing as a control.
The resulting culture solution was then inoculated in 0.1. ml volumes into the two test tube mediums and cultured with shaking at 28° C. for 3 days at 300 spm. Each culture solution was measured for its carotenoid concentration by HPLC.

[2] = tested on: Paracoccus carotinifaciens strain E-396 (FERM BP-4283); assay: Amino acid supplementation (20 amino acids), test tube culture, carotenoid by HPLC and growth by OD610; format: cell-based; conditions: amino acid at 1.0 g/L
Method: as §1
as §2, with “conditions. Astaxanthin concentration (mg/L)=A/2150×B×100” for “conditions.”
A medium of the following composition (sucrose 30 g/L, corn steep liquor 30 g/L, potassium dihydrogenphosphate 1.5 g/L, disodium hydrogenphosphate 12-hydrate 3.8 g/L, calcium chloride dihydrate 5.0 g/L, magnesium sulfate 7-hydrate 0.7 g/L, iron sulfate 7-hydrate 0.3 g/L, pH 7.2) was dispensed in 8 ml volumes into cotton-plugged test tubes having an inner diameter of 18 mm and sterilized in an autoclave at 121° C. for 15 minutes to prepare a test tube medium for seed culture.
as §3, with “filtered corn steep liquor 5” for “soybean meal 20”, “(21” for “(2”, “total).” for “total). One of the test tubes was supplemented with monosodium L-glutamate monohydrate to 30 mmol/L, while the other was supplemented with nothing as a control.”
The mediums in these test tubes were supplemented with 20 amino acids, glycine, alanine, valine, leucine, isoleucine, serine, threonine, aspartic acid, glutamic acid, asparagine, glutamine, lysine, arginine, cysteine, methionine, phenylalanine, tyrosine, tryptophan, histidine and proline, respectively, at 1.0 g/L. One of the tubes was supplemented with no amino acid as a control. Finally, the mediums in the tubes were adjusted to pH 7.1 with aqueous sodium hydroxide or aqueous sulfuric acid and then sterilized in an autoclave at 121° C. for 20 minutes.
Paracoccus carotinifaciens strain E-396 (FERM BP-4283) was inoculated into the test tube medium for seed culture and then cultured with shaking at 28° C. for 2 days at 300 spm. The resulting culture solution was then inoculated in 0.1 ml volumes into the 21 test tube media, respectively, and cultured with shaking at 28° C. for 4 days at 300 spm.
Each culture solution was measured for its carotenoid concentration by HPLC and microbial cell growth was determined by OD610 (absorbance at 610 nm).

[3] = Glutamic acid concentration 30 mmol/L, 28° C. for 3 days
[4] = culture solution, 28° C. for 4 days

`N[C@@H](CCC(=O)O)C(=O)O` [Glutamic acid, glutamic acid] was tested, and the “produced carotenoid concentration compared to the sample without glutamic acid” value ([1]; 30 mmol/L) was “higher produced carotenoid concentration”, the 3-Hydroxyechinenone [1, 3] was 0.1 mg/L and the Adonixanthin [1, 3] was 1.6 mg/L. The Astaxanthin [1, 3] was 9.2 mg/L, the Asteroidenone [1, 3] was 0.1 mg/L and the Canthaxanthin [1, 3] was 1.3 mg/L. For the same compound, the Echinenone [1, 3] was 0.6 mg/L, the Phoenicoxanthin [1, 3] was 2.0 mg/L and the “Total carotenoid” value [1, 3] was 17.1 mg/L. The Zeaxanthin [1, 3] was 0.03 mg/L, the β-Carotene [1, 3] was 2.1 mg/L and the β-Cryptoxanthin [1, 3] was 0.02 mg/L. For the same compound, the “effect on the production of carotenoid pigments” value ([2]; versus tube with no amino acid) was “stimulatory effect”, the Astaxanthin [2, 4] was 10.7 mg/L and the Total carotenoid [2, 4] was 28.2 mg/L. It also gave an OD610 ([2]; microbial cell growth, absorbance at 610 nm, 28° C. for 4 days) of 17.
